# From publication PMC12260505, “First-in-Human Phase I/IIa Study of the First-in-Class CDK2/4/6 Inhibitor PF-06873600 Alone or with Endocrine Therapy in Patients with Breast Cancer” (Clinical Cancer Research, 2025)
# How the values were obtained:
# [1] = Dose-limiting toxicities in dose escalation (modified toxicity probability interval method); format: in vivo, human
# Procedure: Part 1 included adult patients with HR^+/HER2^− advanced breast cancer or mBC (third- or fourth-line setting), locally recurrent/advanced or metastatic TNBC, or advanced platinum-resistant epithelial ovarian cancer/fallopian tube cancer/primary peritoneal cancer who received oral PF-06873600 at doses of 1 to 50 mg twice daily or oral PF-06873600 plus ET (letrozole or fulvestrant). Primary endpoints for part 1 dose escalation determined safety and tolerability to define dose-limiting toxicities (DLT), estimate the maximum tolerated dose, and select the recommended dose for expansion (RDE). Safety endpoints included adverse events (AE) characterized by type, frequency, severity [as graded by NCI Common Terminology Criteria for Adverse Events (CTCAE) version 4.03], timing, seriousness, and relationship to study therapy. Laboratory abnormalities were characterized by type, frequency, severity (as graded by NCI CTCAE version 4.03), timing, vital sign abnormalities, and heart rate–corrected QT interval (e.g., QTcF). Secondary endpoints included PK, preliminary antitumor activity as assessed using RECIST version 1.1, time-to-event endpoints including objective response rate (ORR), duration of response (DoR), progression-free survival (PFS), time to progression (TTP), and modulation of tumor CDK biomarkers [phosphorylated Rb (pRb), Ki67]. Exploratory endpoints included molecular profiling of tumor and ctDNA and the relationship to clinical outcome.
# In part 1A, dose escalation monotherapy, patients received escalating doses of a single-agent immediate release (IR) formulation of PF-06873600, 1 to 50 mg twice daily orally on a continuous basis, with dose escalation following the modified toxicity probability interval method. Seven dose levels were evaluated: 1, 2, 5, 10, 25, 35, and 50 mg. An alternative intermittent dosing regimen (5 days on/2 days off) was also explored at 35 mg twice daily. Part 1B combination dose-finding involved PF-06873600 IR 25 mg twice daily with ET (letrozole or fulvestrant, each administered per standard of care). Letrozole was administered orally once daily together with PF-06873600. No dose adjustment for letrozole was permitted, but dosing interruptions were allowed. Fulvestrant 500 mg was administered intramuscularly on cycle 1 day 1 and day 15, cycle 2 day 1, and then monthly thereafter (±3 days) to accommodate dosing on day 1 of each cycle. No dose adjustment for fulvestrant was permitted. Part 1C evaluated two modified release (MR) formulations of PF-06873600: one in the single-dose setting and the other in the twice-daily setting. A cycle was defined as 28 days, regardless of missed doses or dose delays.
# DLT was the primary endpoint of the study, summarized by dose level using the per-protocol analysis set for patients in the dose escalation portion of the study. Efficacy analysis was summarized by dose cohorts for part 2 of the study. For part 1, no formal efficacy analysis was presented. For part 2, tumor response was presented in the form of patient data listings that included, but were not limited to, tumor type, starting dose, tumor response at each visit, and best overall response. In addition, progression date, death date, date of first response, last tumor assessment date, and date of last contact were listed. ORR, PFS, overall survival, TTP, and DoR were summarized and presented as data permitted. For response-based metrics (best overall response, ORR, and DoR), analyses were presented on the basis of confirmed responses. Analyses of PFS and TTP were defined as the time from the date of the first dose. Summaries of the number and percentage of patients with PFS and TTP and data listings by tumor type and dose were generated based on data availability. The 95% confidence intervals (CI) for medians and quartiles were generated based on the Brookmeyer–Crowley method, whereas CIs for the estimated probability of an event at a particular time point were generated using the Greenwood formula. […]
# ctDNA = ctDNA molecular response (Guardant360, meanVAF change); format: in vivo, human; conditions: plus fulvestrant; for Median ctDNA molecular response: combined parts 2A and 2C; for Median change in ctDNA meanVAF: cycle 1 day 15 from cycle 1 day 1
# Procedure: Plasma samples were collected at cycle 1 day 1, cycle 1 day 15, and the end of treatment (EOT). Genomic alterations in ctDNA were detected using the next-generation sequencing–based 74-gene Guardant360 platform (Guardant Health). ctDNA molecular response between the two samples was determined as described by Mack and colleagues ([9]). Briefly, after subtracting germline variants and potential clonal hematopoiesis of indeterminate potential, the mean variant allele frequency (meanVAF) of somatic variants (including single-nucleotide variants, insertions and deletions, and fusions) with a mutant molecular count above a proprietary threshold was calculated for each sample by averaging the VAFs of all variants detected among the two samples. The relative change of meanVAF of the posttreatment sample from the baseline sample was then calculated as the ctDNA molecular response. Samples lacking somatic variants with sufficient mutant molecular counts or the absence of any somatic alterations at both time points were considered ctDNA low and not evaluable for molecular response.
# CDK9 = biological target: CDK9; design: method as in PMID 34110834; conditions: cited from earlier work
# [2] = part 1A 35 mg twice daily, N = 2, DLT-evaluable set
# [3] = part 1A 50 mg twice daily, N = 8, DLT-evaluable set
compound,measurement,setting,value
C[C@@]1(O)CCC[C@H]1n1c(=O)c(C(F)F)cc2cnc(NC3CCN(S(C)(=O)=O)CC3)nc21 [PF-06873600],DLTs at the monotherapy RDE,"[1]; 25 mg twice daily, single-agent or combination groups",No DLTs
same,"DLT, Cardiac arrest",[1]; [2],0 n (%)
same,"DLT, Colitis",[1]; [2],0 n (%)
same,"DLT, Fatigue",[1]; [2],0 n (%)
same,"DLT, Febrile neutropenia",[1]; [2],0 n (%)
same,"DLT, Multiple organ dysfunction syndrome",[1]; [2],0 n (%)
same,"DLT, Neutrophil count decreased",[1]; [2],2 (100.0) n (%)
same,"DLT, Platelet count decreased",[1]; [2],1 (50.0) n (%)
same,"DLT, Thrombocytopenia",[1]; [2],0 n (%)
same,Patients with any DLTs,[1]; [2],2 (100.0) n (%)
same,"DLT, Cardiac arrest",[1]; [3],1 (12.5) n (%)
same,"DLT, Colitis",[1]; [3],1 (12.5) n (%)
same,"DLT, Fatigue",[1]; [3],1 (12.5) n (%)
same,"DLT, Febrile neutropenia",[1]; [3],3 (37.5) n (%)
same,"DLT, Multiple organ dysfunction syndrome",[1]; [3],1 (12.5) n (%)
same,"DLT, Neutrophil count decreased",[1]; [3],0 n (%)
same,"DLT, Platelet count decreased",[1]; [3],0 n (%)
same,"DLT, Thrombocytopenia",[1]; [3],1 (12.5) n (%)
same,Patients with any DLTs,[1]; [3],4 (50.0) n (%)
same,Patients with DLTs (all treatment-related),"[1]; part 1A, 42 patients evaluable for DLT",14.3%
same,Recommended dose for expansion (RDE),[1]; single-agent and combination dosing groups,25 mg twice daily
same,Median ctDNA molecular response,ctDNA; EOT,6%
same,Median ctDNA molecular response,ctDNA; cycle 1 day 15,−60%
same,Median change in ctDNA meanVAF,ctDNA; part 2A (28 evaluable),−61%
same,Median change in ctDNA meanVAF,ctDNA; part 2C (14 evaluable),−54%
same,Ki,CDK9,19.6 nM
